Legend:
Assay in all cases: relative viability (nuclei count vs DMSO), 5 days (fraction); higher = more cells survive
DM3189 + Navitoclax = compound: C1CN(CCN1)C2=CC=C(C=C2)C3=CN4C(=C(C=N4)C5=CC=NC6=CC=CC=C56)N=C3 [DM3189] + CC1(C)CCC(c2ccc(Cl)cc2)=C(CN2CCN(c3ccc(C(=O)NS(=O)(=O)c4ccc(N[C@H](CCN5CCOCC5)CSc5ccccc5)c(S(=O)(=O)C(F)(F)F)c4)cc3)CC2)C1 [Navitoclax] (partner 0.5 µM)
Procedure, shortened: (§1)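 Each reported value is a median over duplicate plates. It expresses relative viability: treated-well nuclei count divided by vehicle-well nuclei count. Lung cancer cell lines in 1536-well plates were dosed by pin tool a day after seeding, alone with one drug or with a fixed anchor-drug dose plus five library-drug doses (not always all listed) in √10 steps, and nuclei were counted after 5 days.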

DM3189 + Foretinib = compound: C1CN(CCN1)C2=CC=C(C=C2)C3=CN4C(=C(C=N4)C5=CC=NC6=CC=CC=C56)N=C3 [DM3189] + COc1cc2c(Oc3ccc(NC(=O)C4(C(=O)Nc5ccc(F)cc5)CC4)cc3F)ccnc2cc1OCCCN1CCOCC1 [Foretinib] (partner 0.25 µM)
Procedure, shortened: as §1

DM3189 + Dasatinib = compound: C1CN(CCN1)C2=CC=C(C=C2)C3=CN4C(=C(C=N4)C5=CC=NC6=CC=CC=C56)N=C3 [DM3189] + Cc1nc(Nc2ncc(C(=O)Nc3c(C)cccc3Cl)s2)cc(N2CCN(CCO)CC2)n1 [Dasatinib] (partner 0.075 µM)
Procedure, shortened: as §1

DM3189 + Decitabine = compound: C1CN(CCN1)C2=CC=C(C=C2)C3=CN4C(=C(C=N4)C5=CC=NC6=CC=CC=C56)N=C3 [DM3189] + Nc1ncn([C@H]2C[C@H](O)[C@@H](CO)O2)c(=O)n1 [Decitabine] (partner 2 µM)
Procedure, shortened: as §1

DM3189 + Olaparib = compound: C1CN(CCN1)C2=CC=C(C=C2)C3=CN4C(=C(C=N4)C5=CC=NC6=CC=CC=C56)N=C3 [DM3189] + O=C(c1cc(Cc2n[nH]c(=O)c3ccccc23)ccc1F)N1CCN(C(=O)C2CC2)CC1 [Olaparib] (partner 8 µM)
Procedure, shortened: as §1

Row | Cell Line | relative viability (DM3189 + Navitoclax; first compound 0.08 µM) | relative viability (DM3189 + Navitoclax; first compound 0.253 µM) | relative viability (DM3189 + Navitoclax; first compound 0.8 µM) | relative viability (DM3189 + Navitoclax; first compound 2.53 µM) | relative viability (DM3189 + Foretinib; first compound 0.08 µM) | relative viability (DM3189 + Foretinib; first compound 0.253 µM) | relative viability (DM3189 + Foretinib; first compound 0.8 µM) | relative viability (DM3189 + Foretinib; first compound 2.53 µM) | relative viability (DM3189 + Dasatinib; first compound 0.08 µM) | relative viability (DM3189 + Dasatinib; first compound 0.253 µM) | relative viability (DM3189 + Dasatinib; first compound 0.8 µM) | relative viability (DM3189 + Dasatinib; first compound 2.53 µM) | relative viability (DM3189 + Decitabine; first compound 0.08 µM) | relative viability (DM3189 + Decitabine; first compound 0.253 µM) | relative viability (DM3189 + Decitabine; first compound 0.8 µM) | relative viability (DM3189 + Decitabine; first compound 2.53 µM) | relative viability (DM3189 + Olaparib; first compound 0.08 µM) | relative viability (DM3189 + Olaparib; first compound 0.253 µM) | relative viability (DM3189 + Olaparib; first compound 0.8 µM) | relative viability (DM3189 + Olaparib; first compound 2.53 µM)
1 | NCI-H3122 | 0.97 | 0.968 | 0.957 | 0.824 | 0.98 | 0.909 | 0.735 | 0.805 | 0.853 | 0.639 | 0.757 | 0.708 | 0.362 | 0.353 | 0.372 | 0.367 | 0.698 | 0.606 | 0.545 | 0.73
2 | NCI-H2023 | 0.992 | 1.04 | 0.909 | 0.842 | 0.938 | 0.867 | 0.857 | 0.552 | 0.781 | 0.595 | 0.363 | 0.46 | 0.229 | 0.225 | 0.205 | 0.201 | 0.486 | 0.432 | 0.515 | 0.333
3 | HCC-78 | 0.877 | 0.725 | – | 0.976 | 0.549 | 0.534 | 0.529 | 0.435 | 0.362 | 0.495 | 0.393 | 0.381 | 0.723 | 0.644 | 0.632 | 0.625 | 0.763 | 0.659 | 0.586 | 0.944
4 | NCI-H2170 | 0.637 | 0.541 | 0.541 | 0.711 | 0.985 | 1.01 | 0.883 | 1.16 | 0.718 | 0.466 | 0.591 | 0.515 | 0.494 | 0.484 | 0.466 | 0.44 | 0.607 | 0.69 | 0.534 | 0.469
5 | NCI-H1793 | 0.422 | 0.396 | 0.421 | 0.478 | 0.768 | 0.847 | 0.905 | 0.783 | 0.423 | 0.368 | 0.371 | 0.361 | 0.55 | 0.458 | 0.461 | 0.541 | 0.998 | 0.943 | 0.702 | 1.15
6 | ABC-1 | – | – | – | – | 1.14 | 1.18 | 1.08 | 0.906 | 0.607 | 0.559 | 0.448 | 0.423 | 1.1 | 1.08 | 1.21 | 1.04 | 1.04 | 0.594 | 0.676 | 0.718
7 | NCI-H1703 | 1.08 | 1.05 | 1 | 0.709 | 0.37 | 0.443 | 0.395 | 0.263 | – | – | – | – | – | – | – | – | 0.397 | 0.466 | 0.429 | 0.446
8 | LCLC-103H | – | – | – | – | 0.847 | 0.761 | 0.718 | 0.702 | 0.607 | 0.457 | 0.393 | 0.339 | 0.765 | 0.746 | 0.691 | 0.721 | 0.78 | 0.713 | 0.736 | 0.75
9 | NCI-H2342 | – | – | – | – | 1.08 | 0.912 | 1.08 | 0.965 | 0.291 | 0.3 | 0.299 | 0.332 | 0.747 | 0.679 | 0.718 | 0.688 | 0.417 | 0.473 | 0.477 | 0.468
10 | SW 900 | – | – | – | – | 0.996 | 0.875 | 0.794 | 0.728 | 0.733 | 0.373 | 0.449 | 0.567 | 0.467 | – | 0.424 | 0.407 | 0.801 | – | 0.886 | 0.897
11 | NCI-H522 | – | – | – | – | – | – | – | – | 1.04 | 0.929 | 0.838 | 0.8 | 0.592 | 0.652 | 0.667 | 0.636 | 0.663 | 0.651 | 0.607 | 0.709
12 | CAL-12T | 1.16 | 1.09 | 1.25 | 1.35 | 1.2 | 1.07 | 1.13 | 1.12 | 0.546 | 0.469 | 0.487 | 0.571 | – | – | – | – | 0.713 | 0.618 | 0.681 | 0.803
13 | NCI-H661 | – | – | – | – | 1.14 | 0.954 | 1.02 | 1.19 | 1.05 | 0.832 | 0.787 | 0.862 | 0.673 | 0.519 | 0.576 | 0.673 | 0.845 | 0.75 | 0.708 | 0.71
14 | NCI-H2228 | 0.96 | 0.952 | 1.1 | 1.3 | 0.802 | 0.828 | 0.7 | 0.517 | 0.577 | 0.41 | 0.545 | 0.245 | – | – | – | – | 0.88 | 0.669 | 0.492 | 0.51
15 | NCI-H650 | – | – | – | – | 1.04 | 0.964 | 0.912 | 1.02 | 0.558 | 0.509 | 0.5 | 0.408 | 0.288 | 0.313 | 0.242 | 0.292 | 0.355 | 0.428 | 0.347 | 0.329
16 | NCI-H1792 | 0.584 | 0.601 | 0.443 | 0.23 | – | – | – | – | 0.547 | 0.899 | 0.716 | 0.927 | 0.529 | 0.519 | 0.397 | 0.579 | 0.647 | 0.354 | 0.404 | 0.38
17 | HCC-44 | 1.12 | 1.11 | 0.813 | 1.44 | – | – | – | – | – | – | – | – | 0.941 | 0.904 | 0.821 | 0.934 | 0.996 | 0.918 | 0.944 | 0.931
18 | IA-LM | 1.22 | 1.22 | 0.951 | 0.987 | 1.24 | 1.2 | 1.26 | 1.32 | – | – | – | – | – | – | – | – | 0.999 | 1.02 | 0.821 | 1.2
19 | NCI-H358 | – | – | – | – | 0.733 | 0.607 | 0.714 | 0.61 | 0.177 | 0.166 | 0.17 | 0.163 | 0.226 | 0.191 | 0.217 | 0.194 | 0.7 | 0.539 | 0.56 | 0.395
20 | NCI-H1563 | – | – | – | – | 0.953 | 0.817 | 0.98 | 0.987 | 0.441 | 0.381 | 0.459 | 0.483 | – | – | – | – | – | – | – | –

— the supplement of paper PMC10307832
